Biological target: T1, KIT V559D T670I (Homo sapiens, UniProt P10721, T670I/V559D)
T1 construct: purchased Thermo Fisher Scientific (Life Technologies) SelectScreen
Experiment: SelectScreen LanthaScreen
Format: binding
Conditions: read-out: % displacement
Method in brief: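 NU5455 was profiled across the SelectScreen Broad panel of kinase activity and binding assays. Z'LYTE reactions such as CSF1R ran at apparent Km ATP, while the Adapta CAMK1 assay used ATP listed as 10. Values are given as percent.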

T1 sequence (P10721 26-976 V559D/T670I): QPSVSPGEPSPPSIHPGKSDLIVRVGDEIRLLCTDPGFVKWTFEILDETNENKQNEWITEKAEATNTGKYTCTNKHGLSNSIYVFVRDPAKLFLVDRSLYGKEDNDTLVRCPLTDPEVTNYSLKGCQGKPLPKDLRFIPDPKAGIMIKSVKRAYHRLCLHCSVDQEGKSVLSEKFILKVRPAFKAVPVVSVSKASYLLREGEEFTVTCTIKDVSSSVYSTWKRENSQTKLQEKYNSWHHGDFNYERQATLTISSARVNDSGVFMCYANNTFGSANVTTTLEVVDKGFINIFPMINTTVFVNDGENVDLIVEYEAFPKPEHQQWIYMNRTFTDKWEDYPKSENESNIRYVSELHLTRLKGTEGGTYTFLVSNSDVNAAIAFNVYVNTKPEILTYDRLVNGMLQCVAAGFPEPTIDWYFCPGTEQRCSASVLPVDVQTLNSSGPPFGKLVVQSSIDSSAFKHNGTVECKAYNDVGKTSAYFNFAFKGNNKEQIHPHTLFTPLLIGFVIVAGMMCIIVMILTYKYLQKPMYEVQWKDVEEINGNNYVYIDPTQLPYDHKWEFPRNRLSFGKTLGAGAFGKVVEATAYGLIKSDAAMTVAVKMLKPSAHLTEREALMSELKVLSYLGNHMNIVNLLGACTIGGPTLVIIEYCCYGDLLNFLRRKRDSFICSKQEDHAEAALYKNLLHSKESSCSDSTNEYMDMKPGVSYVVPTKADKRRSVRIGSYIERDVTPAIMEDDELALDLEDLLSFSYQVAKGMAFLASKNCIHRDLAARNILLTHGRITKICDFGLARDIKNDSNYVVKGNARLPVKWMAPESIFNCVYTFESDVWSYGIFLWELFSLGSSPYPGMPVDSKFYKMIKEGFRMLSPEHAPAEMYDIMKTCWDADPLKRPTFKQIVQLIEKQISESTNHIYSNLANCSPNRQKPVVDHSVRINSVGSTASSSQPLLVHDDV

Structure (SMILES): CN(C(=O)CN1CCOCC1)c1ccc2sc3c(-c4cccc5c(=O)cc(N6CC7CCC(C6)O7)oc45)cccc3c2c1 [NU5455]
- inhibition at 1 µM: 3.1%
